In patent US4820694A, “Modifications of 3-O-demethylmycinose in macrocin and lactenocin” (priority 1986, dated 1989):
≈ marks a conversion by molar mass, not a printed value. Where two headings read alike, the source gives them in different places.

What was measured:
[1] = test system: Streptococcus pyogenes C203; assay: protection of mice experimentally infected with S. pyogenes C203; format: in vivo; details: mice, mg/kg × 2, doses given 1 and 4 hours postinfection, read-out: ED50
Summary of the method: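 Activity is given as ED50, the mg/kg dose (×2) protecting half of the mice infected with S. pyogenes C203. Compound was dosed 1 and 4 h after infection.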

[2] = test system: Haemophilus influenzae 76; assay: standard agar-dilution MIC assay; format: cell-based; details: Haemophilus influenzae, 76
Description: (§1) The MIC's in Table III were determined by standard agar-dilution assays. The MIC's in Table IV were obtained using conventional brothdilution microtiter tests.

[3] = test system: Staphylococcus epidermidis 222; assay: standard agar-dilution MIC assay; format: cell-based; details: Staphylococcus epidermidis, 222
Description: as §1

[4] = test system: Streptococcus Group D 9960; assay: standard agar-dilution MIC assay; format: cell-based; details: GROUPD9960, read-out: MIC
Description: as §1

[5] = test system: Escherichia coli EC14; assay: standard agar-dilution MIC assay; format: cell-based; details: agar-dilution, read-out: MIC
Description: as §1

[6] = test system: Streptococcus Group D X66; assay: standard agar-dilution MIC assay; format: cell-based; details: read-out: MIC
Description: as §1

[7] = test system: Staphylococcus aureus X400; assay: standard agar-dilution MIC assay; format: cell-based; details: Staphylococcus aureus, X400
Description: as §1

[8] = test system: Haemophilus influenzae C.L.; assay: standard agar-dilution MIC assay; format: cell-based; details: Haemophilus influenzae
Description: as §1

[9] = test system: Klebsiella pneumoniae X68; assay: standard agar-dilution MIC assay; format: cell-based; details: Klebsiella pneumoniae, X68; agar-dilution; read-out: MIC
Description: as §1

[10] = test system: Streptococcus pyogenes C203; assay: standard agar-dilution MIC assay; format: cell-based; details: Streptococcus pyogenes, C203
Description: as §1

[11] = test system: Staphylococcus aureus V41; assay: standard agar-dilution MIC assay; format: cell-based; details: Staphylococcus aureus, V41
Description: as §1

[12] = test system: Pseudomonas aeruginosa X239; assay: standard agar-dilution MIC assay; format: cell-based; details: Pseudomonas aeruginosa, X239; agar-dilution; read-out: MIC
Description: as §1

[13] = test system: Staphylococcus epidermidis EPI1; assay: standard agar-dilution MIC assay; format: cell-based; details: Staphylococcus epidermidis, EPI1
Description: as §1

[14] = test system: Staphylococcus aureus X1.1; assay: standard agar-dilution MIC assay; format: cell-based; details: Staphylococcus aureus, X1.1
Description: as §1

[15] = test system: Mycoplasma hyopneumoniae S5972; assay: broth-dilution microtiter MIC test; format: cell-based; details: Mesomycoplasma hyopneumoniae, S5972
Description: as §1

[16] = test system: Mycoplasma synoviae 40A; assay: broth-dilution microtiter MIC test; format: cell-based; details: Mycoplasmopsis synoviae, 40A
Description: as §1

[17] = test system: Pasteurella multocida 17E; assay: broth-dilution microtiter MIC test; format: cell-based; details: Pasteurella multocida, 17E
Description: as §1

[18] = test system: Pasteurella multocida 60A; assay: broth-dilution microtiter MIC test; format: cell-based; details: Pasteurella multocida, 60A
Description: as §1

[19] = test system: Streptococcus sp. 19F; assay: broth-dilution microtiter MIC test; format: cell-based; details: Streptococcus, SP.19F
Description: as §1

[20] = test system: Mycoplasma gallisepticum 36H; assay: broth-dilution microtiter MIC test; format: cell-based; details: Mycoplasmoides gallisepticum, 36H
Description: as §1

[21] = test system: Mycoplasma hyorhinis 29E; assay: broth-dilution microtiter MIC test; format: cell-based; details: Mycoplasma, 29E
Description: as §1

[22] = test system: Pasteurella multocida 22A; assay: broth-dilution microtiter MIC test; format: cell-based; details: Pasteurella multocida, 22A
Description: as §1

[23] = test system: Mycoplasma gallisepticum 29C; assay: broth-dilution microtiter MIC test; format: cell-based; details: Mycoplasmoides gallisepticum, 29C
Description: as §1

[24] = test system: Pasteurella multocida 40G; assay: broth-dilution microtiter MIC test; format: cell-based; details: Pasteurella multocida, 40G
Description: as §1

[25] = test system: Pasteurella multocida 68C; assay: broth-dilution microtiter MIC test; format: cell-based; details: Pasteurella multocida, 68C
Description: as §1

[26] = test system: Pasteurella hemolytica 23C; assay: broth-dilution microtiter MIC test; format: cell-based; details: Pasteurella, 23C
Description: as §1

[27] = test system: Pasteurella hemolytica 41D; assay: broth-dilution microtiter MIC test; format: cell-based; details: Pasteurella, 41D
Description: as §1

[28] = test system: Bordetella bronchiseptica; assay: broth-dilution microtiter MIC test; format: cell-based; details: Bordetella bronchiseptica; broth-dilution microtiter; read-out: MIC
Description: as §1

[29] = test system: Mycoplasma gallisepticum 15E; assay: broth-dilution microtiter MIC test; format: cell-based; details: Mycoplasmoides gallisepticum, 15E
Description: as §1

[30] = test system: Pasteurella hemolytica 22C; assay: broth-dilution microtiter MIC test; format: cell-based; details: Pasteurella, 22C
Description: as §1

[31] = test system: Staphylococcus aureus 19C; assay: broth-dilution microtiter MIC test; format: cell-based; details: Staphylococcus aureus, 19C
Description: as §1

[32] = test system: Staphylococcus aureus S13E; assay: microbe, parasite or virus in culture; format: cell-based; details: Staphylococcus aureus, S13E
Description: as §1

[33] = test system: Streptococcus pneumoniae Park I; assay: microbe, parasite or virus in culture; format: cell-based; details: Streptococcus pneumoniae
Description: as §1

[34] = test system: Streptococcus Group D 2041; assay: standard agar-dilution MIC assay; format: cell-based; details: GROUPD2041
Description: as §1

[35] = broth-dilution microtiter, read-out: MIC

Compound: CCC1OC(=O)CC(O)C(C)C(OC2OC(C)C(O)C(N(C)C)C2O)C(CC=O)CC(C)C(=O)C=CC(C)=CC1COC1OC(C)C2OC(=O)OC2C1OC (stereo not shown) [Compound 51, Lactenocin-3",4"-Carbonate Derivative]
- ED50 ([1]; C203, Oral): > 100 mg/kg
- ED50 ([1]; C203, sc, Subcutaneous): 1.1 mg/kg
- MIC [2]: 8 µg/mL (≈ 10.2 µM)
- MIC [3]: 0.5 µg/mL (≈ 0.638 µM)
- MIC [4]: 2 µg/mL (≈ 2.55 µM)
- MIC [5]: > 128 µg/mL
- MIC [6]: 2 µg/mL (≈ 2.55 µM)
- MIC [7]: 2 µg/mL (≈ 2.55 µM)
- MIC [8]: 8 µg/mL (≈ 10.2 µM)
- MIC [9]: > 128 µg/mL
- MIC [10]: 0.25 µg/mL (≈ 0.319 µM)
- MIC [11]: 2 µg/mL (≈ 2.55 µM)
- MIC [12]: > 128 µg/mL
- MIC [13]: 1 µg/mL (≈ 1.28 µM)
- MIC [14]: 1 µg/mL (≈ 1.28 µM)
- MIC [15, 35]: 0.097 µg/mL (≈ 0.124 µM)
- MIC [16]: 0.78 µg/mL (≈ 0.995 µM)
- MIC [17]: 6.25 µg/mL (≈ 7.97 µM)
- MIC [18]: 6.25 µg/mL (≈ 7.97 µM)
- MIC [19]: 3.12 µg/mL (≈ 3.98 µM)
- MIC [20, 35]: > 50 µg/mL
- MIC [21, 35]: 3.2 µg/mL (≈ 4.08 µM)
- MIC [22]: 6.25 µg/mL (≈ 7.97 µM)
- MIC [23]: 0.39 µg/mL (≈ 0.498 µM)
- MIC [24]: 3.12 µg/mL (≈ 3.98 µM)
- MIC [25]: 12.5 µg/mL (≈ 15.9 µM)
- MIC [26]: 25 µg/mL (≈ 31.9 µM)
- MIC [27]: 12.5 µg/mL (≈ 15.9 µM)
- MIC [28]: > 50 µg/mL
- MIC [29]: 50 µg/mL (≈ 63.8 µM)
- MIC [30]: 12.5 µg/mL (≈ 15.9 µM)
- MIC [31]: 1.56 µg/mL (≈ 1.99 µM)
- MIC [32]: 1 µg/mL (≈ 1.28 µM)
- MIC [33]: 0.25 µg/mL (≈ 0.319 µM)

Compound: CCC1OC(=O)CC(O)C(C)C(OC2OC(C)C(O)C(N(C)C)C2O)C(CCOc2ccccc2)CC(C)C(=O)C=CC(C)=CC1COC1OC(C)C2OC(=O)OC2C1OC (stereo not shown) [Compound 53, 20-DH-20-O-Phenyl-lactenocin 3",4"-Carbonate]
- ED50 ([1]; C203, Oral): 18.7 mg/kg
- ED50 ([1]; C203, sc, Subcutaneous): 6.1 mg/kg
- MIC [2]: 32 µg/mL (≈ 37.1 µM)
- MIC [3]: 0.5 µg/mL (≈ 0.58 µM)
- MIC [5]: > 128 µg/mL
- MIC [6]: 8 µg/mL (≈ 9.28 µM)
- MIC [7]: 1 µg/mL (≈ 1.16 µM)
- MIC [8]: 64 µg/mL (≈ 74.2 µM)
- MIC [9]: > 128 µg/mL
- MIC [34]: 8 µg/mL (≈ 9.28 µM)
- MIC [10]: 0.5 µg/mL (≈ 0.58 µM)
- MIC [11]: 1 µg/mL (≈ 1.16 µM)
- MIC [12]: > 128 µg/mL
- MIC [13]: 1 µg/mL (≈ 1.16 µM)
- MIC [14]: 1 µg/mL (≈ 1.16 µM)
- MIC [15]: 3.12 µg/mL (≈ 3.62 µM)
- MIC [16]: 1.56 µg/mL (≈ 1.81 µM)
- MIC [17]: 25 µg/mL (≈ 29 µM)
- MIC [18]: 25 µg/mL (≈ 29 µM)
- MIC [19]: 3.12 µg/mL (≈ 3.62 µM)
- MIC [20]: 50 µg/mL (≈ 58 µM)
- MIC [21]: 25 µg/mL (≈ 29 µM)
- MIC [22]: 50 µg/mL (≈ 58 µM)
- MIC [23]: 0.195 µg/mL (≈ 0.226 µM)
- MIC [24]: 50 µg/mL (≈ 58 µM)
- MIC [25]: 25 µg/mL (≈ 29 µM)
- MIC [26]: 50 µg/mL (≈ 58 µM)
- MIC [27]: 50 µg/mL (≈ 58 µM)
- MIC [28]: > 50 µg/mL
- MIC [29]: 50 µg/mL (≈ 58 µM)
- MIC [30]: 50 µg/mL (≈ 58 µM)
- MIC [31]: 0.78 µg/mL (≈ 0.905 µM)
- MIC [32]: 1 µg/mL (≈ 1.16 µM)
- MIC [33]: 2 µg/mL (≈ 2.32 µM)

Compound: CCC1OC(=O)CC(O)C(C)C(OC2OC(C)C(O)C(N(C)C)C2O)C(CC=O)CC(C)C(=O)C=CC(C)=CC1COC1OC(C)C2OC(C)(C)OC2C1OC (stereo not shown) [Compound 55, 3",4"-Isopropylidene Derivative of Lactenocin]
- ED50 ([1]; C203, Oral): > 100 mg/kg
- ED50 ([1]; C203, sc, Subcutaneous): > 10 mg/kg
- MIC [2]: 16 µg/mL (≈ 20.1 µM)
- MIC [3]: 1 µg/mL (≈ 1.25 µM)
- MIC [5]: > 128 µg/mL
- MIC [6]: 32 µg/mL (≈ 40.1 µM)
- MIC [7]: 4 µg/mL (≈ 5.01 µM)
- MIC [8]: 16 µg/mL (≈ 20.1 µM)
- MIC [9]: > 128 µg/mL
- MIC [34]: 16 µg/mL (≈ 20.1 µM)
- MIC [10]: 1 µg/mL (≈ 1.25 µM)
- MIC [11]: 2 µg/mL (≈ 2.51 µM)
- MIC [12]: > 128 µg/mL
- MIC [13]: 2 µg/mL (≈ 2.51 µM)
- MIC [14]: 2 µg/mL (≈ 2.51 µM)
- MIC [15]: 0.78 µg/mL (≈ 0.977 µM)
- MIC [16]: 3.12 µg/mL (≈ 3.91 µM)
- MIC [17]: 25 µg/mL (≈ 31.3 µM)
- MIC [18]: 50 µg/mL (≈ 62.7 µM)
- MIC [20, 35]: > 50 µg/mL
- MIC [21]: 50 µg/mL (≈ 62.7 µM)
- MIC [22]: 25 µg/mL (≈ 31.3 µM)
- MIC [23]: 0.39 µg/mL (≈ 0.489 µM)
- MIC [24]: 25 µg/mL (≈ 31.3 µM)
- MIC [26]: 50 µg/mL (≈ 62.7 µM)
- MIC [27]: 50 µg/mL (≈ 62.7 µM)
- MIC [28]: > 50 µg/mL
- MIC [29, 35]: > 50 µg/mL
- MIC [30]: 50 µg/mL (≈ 62.7 µM)
- MIC [31]: 3.12 µg/mL (≈ 3.91 µM)
- MIC [32]: 2 µg/mL (≈ 2.51 µM)
- MIC [33]: 8 µg/mL (≈ 10 µM)
